Measurements as given in the NIST ThermoML archive (doi:10.1016/j.fluid.2012.01.022).
± gives the expanded uncertainty stated by the source.

Key:
[1] = Molar enthalpy of transition or fusion; conditions: Crystal; DSC
[2] = Crystal; DTA

Molar enthalpy of transition or fusion [1]: 27.9 ± 0.8 kJ/mol
Normal melting temperature [2]: 172.69 ± 1.1 °C
SMILES: NNC(=O)c1ccncc1 [isonicotinic acid hydrazide]
